# Assay results as given in US20250101001A1 (priority 2021, published 2025).
# Legend:
# 5-HT2A [1] = molecular target: T1, 5-HT2A (Homo sapiens, UniProt P28223); experiment: Serotonin 5-HT2A in vitro radioligand binding competition assay ([3H]-DOI); set-up: purchased Epics Therapeutics S. A. (Belgium) FAST-0505B; conditions: [3H]-DOI competition, membrane extracts
# Description: Serotonin 5-HT2A In Vitro Radioligand Binding Competition Assay. The 5-HT2A radioligand binding competition assay was performed at Epics Therapeutics S. A. (Belgium, FAST-0505B) using conventional methods. Briefly, competition binding was performed in duplicate in the wells of a 96 well plate (Master Block, Greiner, 786201) containing binding buffer (optimized for each receptor), membrane extracts (amount of protein/well optimized for each receptor), radiotracer [^3H]-DOI (final concentration optimized for each receptor) and test compound. Nonspecific binding was determined by co-incubation with 200-fold excess of cold competitor. The samples were incubated in a final volume of 0.1 ml at a temperature and for a duration optimized for each receptor and then filtered over filter plates. Filters were washed six times with 0.5 ml of ice-cold washing buffer (optimized for each receptor) and 50 μl of Microscint 20 (Packard) were added in each well. The plates were incubated 15 min on an orbital shaker and then counted with a TopCount™ for 1 min/well.
# 5-HT2A [2] = molecular target: T1, 5-HT2A; experiment: Serotonin 5-HT2A in vitro cellular IPOne agonism assay; type: cell-based; set-up: host or cells: CHO-K1; conditions: CHO-K1 cells, IPOne HTRF, agonist mode
# Description: Serotonin 5-HT2A In Vitro Cellular IPOne Agonism Assay. The 5-HT2A IPOne HTRF assay was performed at Epics Therapeutics S.A. (Belgium, FAST-0505I) using conventional methods. Briefly, CHO-K1 cells expressing human recombinant 5-HT2A receptor grown to mid-log phase in culture media without antibiotics were detached with PBS-EDTA, centrifuged, and resuspended in medium without antibiotics buffer. 20,000 cells are distributed in a 96 well plate and incubated overnight at 37° C. with 5% Co2.
# For agonist testing, the medium was removed and […] of assay buffer plus 20 μl of test compound or reference agonist were added in each well. The plate was incubated for 60 min. at 37° C. with 5% CO2.
# (§1) After addition of the lysis buffer containing IP1-d2 and anti-IP1 cryptate detection reagents, plates were incubated 1-hour at room temperature, and fluorescence ratios were measured according to the manufacturer specification, with the HTRF kit.
# 5-HT2A [3] = molecular target: T1, 5-HT2A; experiment: Serotonin 5-HT2A in vitro cellular IPOne antagonism assay; type: cell-based; set-up: host or cells: CHO-K1; conditions: CHO-K1 cells, IPOne HTRF, reference agonist a-Me-5HT
# Description: Serotonin 5-HT2A and 5-HT2C In Vitro Cellular IPOne Antagonism Assay. The 5-HT2A and 5-HT2C IPOne HTRF assay was performed at Epics Therapeutics S.A. (Belgium, FAST-0505I) in antagonism mode using conventional methods. Briefly, CHO-K1 cells expressing human recombinant 5-HT2A or 5-HT2C receptor grown to mid-log phase in culture media without antibiotics were detached with PBS-EDTA, centrifuged, and resuspended in medium without antibiotics buffer. 20,000 cells were distributed in a 96 well plate and incubated overnight at 37° C. with 5% C02.
# For antagonist testing, a reference agonist a-Me-5HT was added and fluorescence signal monitored for several minutes, followed by addition of 20 μlof assay buffer plus 20 μl of test compound or reference antagonist ketanserin, in each well. The plate was incubated for 60 min. at 37° C. with 5% CO2.
# as §1
# T1 sequence (P28223 whole entry): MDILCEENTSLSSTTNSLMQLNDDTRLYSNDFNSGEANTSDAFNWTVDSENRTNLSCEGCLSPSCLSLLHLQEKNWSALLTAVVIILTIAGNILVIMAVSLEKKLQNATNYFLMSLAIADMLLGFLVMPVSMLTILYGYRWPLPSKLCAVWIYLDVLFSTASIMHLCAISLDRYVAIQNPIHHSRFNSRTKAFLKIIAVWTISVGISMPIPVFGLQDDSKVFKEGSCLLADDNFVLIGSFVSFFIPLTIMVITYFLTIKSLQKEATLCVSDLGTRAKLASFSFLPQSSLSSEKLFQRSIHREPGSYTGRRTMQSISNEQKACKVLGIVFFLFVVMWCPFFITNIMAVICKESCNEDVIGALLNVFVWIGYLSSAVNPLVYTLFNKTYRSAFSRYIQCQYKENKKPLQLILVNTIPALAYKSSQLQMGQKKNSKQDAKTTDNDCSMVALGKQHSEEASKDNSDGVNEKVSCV
smiles,measurement,setting,value
"CN1CC(n2ccc3c(F)c(F)ccc32)C1 [Compound 6, 4,5-Difluoro-1-(1-methylazetidin-3-yl)-1H-indole]",IC50,5-HT2A [1],0.101 to 1 µM
same,EC50,5-HT2A [2],> 10 µM
same,IC50,5-HT2A [3],0.101 to 1 µM
"Clc1ccc2c(ccn2C2CNC2)c1 [Compound 24, 1-(azetidin-3-yl)-5-chloro-1H-indole]",IC50,5-HT2A [1],1 to 10 µM
same,EC50,5-HT2A [2],> 10 µM
same,IC50,5-HT2A [3],0.101 to 1 µM
"Fc1ccc2ccn(C3CNC3)c2c1 [Compound 28, 1-(azetidin-3-yl)-6-fluoro-1H-indole]",IC50,5-HT2A [1],0.101 to 1 µM
same,EC50,5-HT2A [2],> 10 µM
same,IC50,5-HT2A [3],0.101 to 1 µM
"CN1CC(n2ccc3cccc(F)c32)C1 [Compound 34, 7-fluoro-1-(1-methylazetidin-3-yl)-1H-indole]",IC50,5-HT2A [1],0.101 to 1 µM
same,EC50,5-HT2A [2],> 10 µM
same,IC50,5-HT2A [3],1 to 10 µM
"COCCN1CCC(n2cc(C)c3cc(F)ccc32)C1 (stereo not shown) [Compound 22, 5-Fluoro-1-(1-(2-methoxyethyl)pyrrolidin-3-yl)-3-methyl-1H-indole]",IC50,5-HT2A [1],1 to 10 µM
same,EC50,5-HT2A [2],> 10 µM
"CN1CC(n2ccc3cc(F)ccc32)C1 [Compound 30, 5-fluoro-1-(1-methylazetidin-3-yl)-1H-indole]",IC50,5-HT2A [1],0.101 to 1 µM
same,EC50,5-HT2A [2],> 10 µM
same,IC50,5-HT2A [3],0.101 to 1 µM
"Cc1cn(C2CCN(C)CC2)c2ccc(F)cc12 [Compound 9, 5-fluoro-3-methyl-1-(1-methylpiperidin-4-yl)-1H-indole]",IC50,5-HT2A [1],0.101 to 1 µM
same,EC50,5-HT2A [2],> 10 µM
same,IC50,5-HT2A [3],0.101 to 1 µM
"Cc1cn(C2CN(C)C2)c2ccc(F)cc12 [Compound 5, 5-fluoro-3-methyl-1-(1-methylazetidin-3-yl)-1H-indole]",IC50,5-HT2A [1],0.101 to 1 µM
same,EC50,5-HT2A [2],> 10 µM
same,IC50,5-HT2A [3],1 to 10 µM
"Cc1cn(C2CCN(C(C)C)C2)c2ccc(F)cc12 (stereo not shown) [Compound 18, 5-fluoro-1-(1-isopropylpyrrolidin-3-yl)-3-methyl-1H-indole]",IC50,5-HT2A [1],1 to 10 µM
same,EC50,5-HT2A [2],> 10 µM
"COc1ccc2c(ccn2C2CNC2)c1 [Compound 29, 1-(azetidin-3-yl)-5-methoxy-1H-indole]",IC50,5-HT2A [1],> 10 µM
same,EC50,5-HT2A [2],> 10 µM
same,IC50,5-HT2A [3],> 10 µM
"CN1CC(n2ccc3cc(C#N)ccc32)C1 [Compound 37, 1-(1-methylazetidin-3-yl)-1H-indole-5-carbonitrile]",IC50,5-HT2A [1],> 10 µM
same,EC50,5-HT2A [2],> 10 µM
same,IC50,5-HT2A [3],> 10 µM
"CN1CC(n2ccc3ccc(F)cc32)C1 [Compound 33, 6-fluoro-1-(1-methylazetidin-3-yl)-1H-indole]",IC50,5-HT2A [1],0.101 to 1 µM
same,EC50,5-HT2A [2],> 10 µM
same,IC50,5-HT2A [3],0.101 to 1 µM
"Cc1cn(C2CCN(C3COC3)C2)c2ccc(F)cc12 (stereo not shown) [Compound 20, 5-fluoro-3-methyl-1-(1-(oxetan-3-yl)pyrrolidin-3-yl)-1H-indole]",IC50,5-HT2A [1],> 10 µM
same,EC50,5-HT2A [2],> 10 µM
"CCN1CCC(n2cc(C)c3cc(F)ccc32)C1 (stereo not shown) [Compound 16, 1-(1-Ethylpyrrolidin-3-yl)-5-fluoro-3-methyl-1H-indole]",IC50,5-HT2A [1],1 to 10 µM
same,EC50,5-HT2A [2],> 10 µM
"Cc1cn(C2CCN(C)C2)c2ccc(OC3COC3)cc12 (stereo not shown) [Compound 13, 3-Methyl-1-(1-methylpyrrolidin-3-yl)-5-(oxetan-3-yloxy)-1H-indole]",IC50,5-HT2A [1],> 10 µM
same,EC50,5-HT2A [2],> 10 µM
"CN1CC(n2ccc3cc(Cl)ccc32)C1 [Compound 36, 5-chloro-1-(1-methylazetidin-3-yl)-1H-indole]",IC50,5-HT2A [1],> 10 µM
same,EC50,5-HT2A [2],> 10 µM
same,IC50,5-HT2A [3],> 10 µM
"CC(C)c1cn(C2CCN(C)C2)c2ccc(F)cc12 (stereo not shown) [Compound 11, 5-fluoro-3-isopropyl-1-(1-methylpyrrolidin-3-yl)-1H-indole]",IC50,5-HT2A [1],1 to 10 µM
same,EC50,5-HT2A [2],> 10 µM
same,IC50,5-HT2A [3],0.101 to 1 µM
"Fc1ccc2c(ccn2C2CNC2)c1F [Compound 2, 1-(azetidin-3-yl)-4,5-difluoro-1H-indole]",IC50,5-HT2A [1],0.101 to 1 µM
same,EC50,5-HT2A [2],> 10 µM
same,IC50,5-HT2A [3],0.101 to 1 µM
"CN1CCC(n2ccc3c(F)c(F)ccc32)C1 (stereo not shown) [Compound 8, 4,5-difluoro-1-(1-methylpyrrolidin-3-yl)-1H-indole]",IC50,5-HT2A [1],0.101 to 1 µM
same,EC50,5-HT2A [2],0.101 to 1 µM
same,IC50,5-HT2A [3],0.101 to 1 µM
"COc1ccc2c(ccn2C2CN(C)C2)c1 [Compound 31, 5-methoxy-1-(1-methylazetidin-3-yl)-1H-indole]",IC50,5-HT2A [1],> 10 µM
same,EC50,5-HT2A [2],> 10 µM
same,IC50,5-HT2A [3],> 10 µM
